In patent EP4140481A1, “PROTEIN-OLIGOMER BINDING AGENTS AND THERAPEUTIC USES THEREOF” (Galyan Bio, Inc., priority 2021, dated 2023):
≈ marks a conversion by molar mass, not a printed value. Where “and” joins values, the source holds several entries; their conditions need not be identical. Equal values may be shown once.

Experiments:
[1] = Thermodynamic solubility; assay type: physicochemical; conditions: thermodynamic from solid
[2] = Kinetic solubility; assay type: physicochemical; conditions: kinetic from dmso stock
[3] = Log D; assay type: physicochemical; conditions: pH 7.4; pH 7,4
[4] = target: T1, mHTT (Homo sapiens, UniProt P42858); assay: mHTT levels in striatal cells (immunocytochemistry); assay type: cell-based, mouse; conditions: for mHTT after 3 h heat shock and following 48 hours of compound treatment in comparison to untreated STHdh 111/111 / remaining activity at 10 µM: STHdh 111/111; for remaining activity at 10 µM: 3 hours heat shock, 48 hours treatment, percentage in comparison to untreated STHdh 111/111, 3B5H10 antibody, read-out: mHTT after treatment
T1 construct: host or cells: ST HDH Q111/111 mouse striatal cell line (knock-in locus)
Experimental: (§1) Staining - Cells were permeabilized with 0.3% Triton X-100 in 4 °C PBS (pH 7.4 from ThermoFisher) for 10 minutes. Then the cells were washed two times with 4 °C PBS. Subsequently, cells are blocked with 3% NGS (normal goat serum from Thermo Fisher) in 4 ° C PBS for 1 hour. Cells were incubated with primary antibodies in blocking buffer (PBS, 3% NGS, 0.02% NaN3) over night at 4 °C. Primary antibodies were mouse antipolyglutamine monoclonal antibody 3B5H10 (Sigma-Aldrich) at 1:250 dilution and Guinea Pig anti-MAP2 polyclonal antibody (Synaptic Systems) at 1:500 dilution. 3B5H10 binds to diffuse mHTT. Diffuse mHTT is a monomeric and small oligomeric mHTT. Diffuse mHTT is correlated to pathological parameters in Huntington's disease. Compounds that bind the mHTT will reduce the levels of diffuse mHTT detected.
Cells were washed 2 times with 4 °C PBS, and then incubated with secondary antibodies at 1:2000 dilution in blocking buffer for 1hour at room temperature. […] Cells were washed 2 times with 4 °C PBS, and then the nuclei were counterstain with DAPI (ThermoFisher) for 10 min at room temperature in the dark. Cells were washed 2 times with 4 °C PBS, and then 4 °C PBS was added to cells and then images were acquired. […] Table 11: Antibodies Used in Immunocytochemistry Studies
Fluorescence Imaging - Imaging sessions were performed on a confocal microscope system (Carl Zeiss Microscopy) equipped with a dual spinning disk unit (Yokogawa). All components of the imaging system were controlled via the ZEN 2 software suite (Carl Zeiss Microscopy). The laser lines used were 405 nm, 488 nm and 639 nm to excite DAPI or the respective fluorophores. […] Nested t test was performed to calculate the significance amongst repeated measurements using GraphPad Prism software.
as §1, with “For LC3 staining primary antibodies were mouse anti-LC3 mab (5F10) (nanoTools) at 1:500 dilution” for “3B5H10 binds to diffuse mHTT. Diffuse mHTT is a monomeric”, “Guinea Pig anti-MAP2 polyclonal antibody (Synaptic Systems) at 1:500 dilution.” for “small oligomeric mHTT. Diffuse mHTT is correlated to pathological parameters in Huntington's disease. Compounds that bind the mHTT will reduce the levels of diffuse mHTT detected.”
Cells were washed 2 times with 4 °C PBS, and then incubated with secondary antibodies at 1:2000 dilution in blocking buffer for 1hour at room temperature. […] Cells were washed 2 times with 4 °C PBS, and then the nuclei were counterstain with DAPI (ThermoFisher) for 10 min at room temperature in the dark. Cells were washed 2 times with 4 °C PBS, and then 4 °C PBS was added to cells and then images were acquired.
EC 50 value was determined with non-linear regression.

[5] = target: T2, wildtype huntingtin (Mus musculus, UniProt P42859); assay: Wildtype huntingtin levels (immunofluorescence); assay type: cell-based; conditions: STHdh 7/7 in comparison to non-treated STHdh 7/7
T2 construct: host or cells: ST HDH Q7/7 mouse striatal cell line

[6] = target: Exon1 Q46 (Homo sapiens, UniProt P42858, INS38QQQQQQQQQQQQQQQQQQQQQQQQQ); assay: Circular dichroism study; assay type: binding
Experimental: Protein samples were diluted with buffer to 7.5 µM prior to Circular Dichroism (CD) measurements. Measurements were conducted at room temperature.
Four spectra at each measurement were taken every 1 nm from 200 to 260 nm, scanning at 50 nm/min with an averaging time of 1 sec. Spectra were obtained from samples in 20 mM phosphate, pH 7.4. Ten scans were averaged for each sample spectrum
Single-wavelength readings at 222 nm were obtained. After subtraction of the Trx contribution, the α-helical content of Httex1 was estimated from its mean residue ellipticity (MREHttex1) at 222 nm. This calculation was conducted as described by Bravo-Arredondo (Bravo-Arredondo, J.M. et al., J Biol Chem. 2018 Dec 21;293(51):19613-19623).
MRE Exon-1 Q16 and Q46 (Mean Residue Ellipticity) was measured every 1 sec for 300 sec; the 301 readings for each sample were averaged and MRE Trx subtracted. The number of amino acids in each sample to experience a change in helicity was estimated using a previously developed helix-coil transition model, which gave the change in fraction of helicity (ΔfHelix) by the following equation: fHelix = (MREHttex1 −MRECoil)/(MREHelix −MRECoil) [formula] where MRE Exon1 Q26 or Q46 (MREHttex1 in the formula) describes the helix-coil transition, obtained from the difference between MRE Eon1 Q26 or Q46 at 222 nm of the fusion protein at the given temperature (in our case 37 °C) and the product of MRE Trx at 222 nm at the same temperature and the fraction of residues comprised by Trx in that particular construct, and MRECoil = 2220−53T,MREHelix =; (−44,000+250T)(1−(3)/(Nr)) [formula] given T as the temperature in °C and Nr as the number of residues.
In order to calculate an equilibrium of the two states model, percent α-helicity was calculated using the relation of MREHttex1 = 0 and -34700 (deg cm^2 dmol^-1) for 0% and 100% helicity, respectively. Table 14: Comparison between Kd, reversal of conformational changes of Exon1 Q46 and reduction of mHTT in comparison to untreated striatal neurons
The CD measurements protocol for Compound 101 was the same as outlined above except that from 206 nm - 210 nm and 220 nm - 224 nm, the step size was 0.2 nm, and the bandwidth was 1nm.

[7] = target: T1, mHTT; conditions: reported effects in cultured cells, quoted for C. elegans dose selection; cited from earlier work

T1 sequence (P42858 with tags, fused parts or gaps with the stated changes): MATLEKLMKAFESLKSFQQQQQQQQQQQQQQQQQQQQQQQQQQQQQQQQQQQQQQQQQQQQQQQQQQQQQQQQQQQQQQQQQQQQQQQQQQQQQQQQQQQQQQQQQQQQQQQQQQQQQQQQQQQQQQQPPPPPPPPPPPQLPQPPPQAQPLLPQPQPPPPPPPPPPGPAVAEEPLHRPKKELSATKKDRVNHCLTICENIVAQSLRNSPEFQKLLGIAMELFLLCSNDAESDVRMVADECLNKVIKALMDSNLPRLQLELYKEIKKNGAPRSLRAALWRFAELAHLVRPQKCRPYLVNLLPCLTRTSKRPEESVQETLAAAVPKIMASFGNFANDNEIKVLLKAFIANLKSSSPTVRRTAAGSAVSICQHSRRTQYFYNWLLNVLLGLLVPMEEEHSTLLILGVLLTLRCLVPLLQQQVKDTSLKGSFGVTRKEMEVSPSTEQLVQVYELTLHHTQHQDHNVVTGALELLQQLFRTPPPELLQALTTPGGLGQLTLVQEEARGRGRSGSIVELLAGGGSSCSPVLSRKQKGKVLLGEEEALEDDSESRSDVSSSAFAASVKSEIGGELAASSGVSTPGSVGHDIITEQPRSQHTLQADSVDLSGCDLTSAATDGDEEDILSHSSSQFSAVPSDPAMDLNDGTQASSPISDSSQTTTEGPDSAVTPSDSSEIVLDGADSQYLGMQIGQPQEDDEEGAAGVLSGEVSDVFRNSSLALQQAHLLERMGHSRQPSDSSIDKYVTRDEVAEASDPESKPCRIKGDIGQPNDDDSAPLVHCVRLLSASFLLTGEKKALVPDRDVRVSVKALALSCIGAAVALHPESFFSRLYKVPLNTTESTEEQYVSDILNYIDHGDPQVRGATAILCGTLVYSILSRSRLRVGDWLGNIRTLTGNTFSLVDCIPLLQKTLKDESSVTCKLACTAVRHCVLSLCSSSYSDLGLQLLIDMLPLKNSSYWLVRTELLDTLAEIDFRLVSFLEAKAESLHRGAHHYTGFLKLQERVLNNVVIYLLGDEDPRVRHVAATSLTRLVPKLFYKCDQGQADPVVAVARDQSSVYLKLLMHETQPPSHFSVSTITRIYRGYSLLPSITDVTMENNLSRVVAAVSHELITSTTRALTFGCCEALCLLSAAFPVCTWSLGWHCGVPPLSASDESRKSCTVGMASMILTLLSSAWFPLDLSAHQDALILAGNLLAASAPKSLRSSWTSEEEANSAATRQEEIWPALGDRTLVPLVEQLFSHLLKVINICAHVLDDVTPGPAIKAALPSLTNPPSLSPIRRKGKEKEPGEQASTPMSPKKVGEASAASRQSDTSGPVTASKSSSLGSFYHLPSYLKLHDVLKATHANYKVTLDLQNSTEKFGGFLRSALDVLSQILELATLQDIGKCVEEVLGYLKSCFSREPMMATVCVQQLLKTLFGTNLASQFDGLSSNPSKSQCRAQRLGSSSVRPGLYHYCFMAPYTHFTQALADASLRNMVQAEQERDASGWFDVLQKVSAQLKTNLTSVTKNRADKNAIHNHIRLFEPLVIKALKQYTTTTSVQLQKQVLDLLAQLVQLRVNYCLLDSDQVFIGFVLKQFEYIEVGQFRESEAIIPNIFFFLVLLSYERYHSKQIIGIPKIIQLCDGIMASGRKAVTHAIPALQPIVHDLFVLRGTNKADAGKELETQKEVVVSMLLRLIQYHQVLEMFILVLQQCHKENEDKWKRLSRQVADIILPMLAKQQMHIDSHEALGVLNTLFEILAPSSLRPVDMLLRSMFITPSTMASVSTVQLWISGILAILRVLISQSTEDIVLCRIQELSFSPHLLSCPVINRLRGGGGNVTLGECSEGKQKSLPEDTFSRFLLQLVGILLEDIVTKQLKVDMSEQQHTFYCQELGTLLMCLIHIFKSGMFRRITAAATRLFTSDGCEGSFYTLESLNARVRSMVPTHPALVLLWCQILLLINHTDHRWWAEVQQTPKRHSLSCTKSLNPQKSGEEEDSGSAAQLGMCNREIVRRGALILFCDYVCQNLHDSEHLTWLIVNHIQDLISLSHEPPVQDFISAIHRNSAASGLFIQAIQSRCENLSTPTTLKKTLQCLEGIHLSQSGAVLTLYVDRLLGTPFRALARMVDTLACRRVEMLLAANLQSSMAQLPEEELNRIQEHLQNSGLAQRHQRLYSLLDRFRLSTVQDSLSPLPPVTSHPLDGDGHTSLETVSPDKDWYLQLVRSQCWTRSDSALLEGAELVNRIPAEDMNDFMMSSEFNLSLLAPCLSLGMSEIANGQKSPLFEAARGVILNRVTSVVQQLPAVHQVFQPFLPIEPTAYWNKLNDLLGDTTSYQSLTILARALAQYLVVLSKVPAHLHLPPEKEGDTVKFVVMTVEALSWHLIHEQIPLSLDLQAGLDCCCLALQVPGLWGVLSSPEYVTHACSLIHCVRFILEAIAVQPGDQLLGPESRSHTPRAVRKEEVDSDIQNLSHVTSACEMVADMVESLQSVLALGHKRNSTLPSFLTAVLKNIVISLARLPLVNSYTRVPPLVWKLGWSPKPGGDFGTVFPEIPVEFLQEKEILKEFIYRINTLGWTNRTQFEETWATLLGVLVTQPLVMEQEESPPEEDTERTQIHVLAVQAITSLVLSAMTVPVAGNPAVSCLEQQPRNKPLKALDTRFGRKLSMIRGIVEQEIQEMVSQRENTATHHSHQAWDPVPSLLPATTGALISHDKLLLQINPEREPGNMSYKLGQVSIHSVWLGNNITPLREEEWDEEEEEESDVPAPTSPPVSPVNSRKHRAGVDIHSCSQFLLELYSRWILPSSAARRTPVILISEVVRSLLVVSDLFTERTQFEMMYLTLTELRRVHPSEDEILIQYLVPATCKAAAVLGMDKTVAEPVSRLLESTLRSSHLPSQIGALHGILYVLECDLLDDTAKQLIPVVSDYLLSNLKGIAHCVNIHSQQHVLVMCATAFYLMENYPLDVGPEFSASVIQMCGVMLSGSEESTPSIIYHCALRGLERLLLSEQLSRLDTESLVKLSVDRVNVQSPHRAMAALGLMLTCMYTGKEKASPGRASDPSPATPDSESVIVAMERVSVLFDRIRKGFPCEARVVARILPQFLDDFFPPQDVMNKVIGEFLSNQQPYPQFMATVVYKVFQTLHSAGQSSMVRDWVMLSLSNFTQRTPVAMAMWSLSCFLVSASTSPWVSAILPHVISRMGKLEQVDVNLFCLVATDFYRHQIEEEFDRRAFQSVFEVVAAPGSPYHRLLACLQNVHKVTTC
Exon1 Q46, sequence (P42858 with tags, fused parts or gaps with the stated changes): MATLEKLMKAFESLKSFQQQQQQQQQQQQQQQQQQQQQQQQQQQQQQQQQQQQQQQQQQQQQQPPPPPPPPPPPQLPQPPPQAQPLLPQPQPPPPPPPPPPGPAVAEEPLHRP

CCc1c(C)[nH]c2ccc(C(=O)NCCN(CC)CC)cc12 [Compound 4, N-(2-(diethylamino)ethyl)-3-ethyl-2-methyl-1H-indole-5-carboxamide]
solubility thermodynamic [1]: 5100 µM (≈ 1540 µg/mL) | solubility kinetic [2]: 328 µM (≈ 98.9 µg/mL) | logD [3]: 2.02 | mHTT after 3 h heat shock and following 48 hours of compound treatment in comparison to untreated STHdh 111/111 [4]: 34% | remaining activity at 10 µM [4]: 34% | Diffuse mHTT reduction ([4]; STHdh 111/111 in comparison to untreated cells, p < 0.0001): 68% | wildtype huntingtin level [5]: not reduced | Kd ([6]; Exon1 Q46): 60 nM | Fraction Helix fH ([6]; Exon1 Q46, conc. Compound 0.01 µM): 22.4% | Fraction Helix fH ([6]; Exon1 Q46, conc. Compound 0.059 µM): 20.9% | Fraction Helix fH ([6]; Exon1 Q46, conc. Compound 0.158 µM): 21.1% | Fraction Helix fH ([6]; Exon1 Q46, conc. Compound 0.647 µM): 20.0% | Fraction Helix fH ([6]; Exon1 Q46, conc. Compound 1.62 µM): 19.5% | Fraction Helix fH ([6]; Exon1 Q46, conc. Compound 4.04 µM): 19.3% | Fraction Helix fH ([6]; Exon1 Q46, conc. Compound 13.68 µM): 18.3% | Fraction Helix fH ([6]; Exon1 Q46, conc. Compound 37.77 µM): 18.1% | Kd ([6]; Exon1 Q46 protein): 60 nM | Blood Brain Barrier Penetrability AUCbrain/AUCplasma (Compound 4): AUCbrain/AUCplasma = 2.27 | penetration of the blood brain area in vivo (intravenous, 1 mg/kg body weight, brain tissue): penetrates the blood brain area | EC50 [7]: 160 nM

Cc1[nH]c2ccc(C(=O)NCCN(C(C)C)C(C)C)cc2c1C [Compound 22]
solubility thermodynamic [1]: 2100 µM (≈ 662 µg/mL) | solubility kinetic [2]: 188 µM (≈ 59.3 µg/mL) | logD [3]: 1.21 | mHTT after 3 h heat shock and following 48 hours of compound treatment in comparison to untreated STHdh 111/111 [4]: 46% | remaining activity at 10 µM [4]: 46% | mHTT lowering with autophagy inhibitor ([4]; STHdh 111/111 exposed to 10 mM NH4Cl): blocked the mHTT lowering effects of Compound 22 completely | Nuclear diffuse mHTT reduction ([4]; STHdh 111/111 in comparison to untreated cells, p = 0.02): 32% | wildtype huntingtin level [5]: not reduced | proportion of a predominantly α-helical state of Exon1 Q46 after treatment ([6]; 2 µM): 21.4% | Reduction of the proportion of a predominantly α-helical state to wildtype levels ([6]; 2 µM compound exposure): 36.7% and 36.6% | Kd ([6]; Exon1 Q46): 700 nM | Kd ([6]; Exon1 Q46 protein): 701 nM
